Like-named read-outs stand apart in the source and are kept apart here.
What was measured:
[1] = biological target: O-6′-methylguanine-DNA methyltransferase, MGMT; parameters: method as in PMID 16533784; conditions: read-out: IC50 against MGMT; cited from earlier work
Vero E6 cells = test: Cell viability by DNA staining (DRAQ7) in the viral infection assay; type: cell-based; conditions: 22 h post infection
Description: We assayed expression of the viral N protein as a surrogate for viral replication by infecting cells with a constant amount of SARS-CoV-2 in the presence of inhibitor. We then quantified viral replicative capacity in fixed cells 22 h post-infection using a fluorescent anti-nucleoprotein antibody.
1.5 × 10^3 Vero E6 cells (NIBC, U.K.) resuspended in DMEM containing 10% FBS were seeded into each well of 96-well imaging plates (Greiner 655090) and cultured overnight at 37°C and 5% CO2. The next day, a 5× solution of compounds were generated by dispensing 10 mM stocks of compounds into a v-bottom 96-well plate (Thermo 249946) and back filling with DMSO to equalise the DMSO concentration in all wells using an Echo 550 (Labcyte) before resuspending in DMEM containing 10% FBS. […] Finally, the cells were infected by adding 20 µl of SARS-CoV2 with a final MOI of 0.5 PFU/cell. 22 h post infection, cells were fixed, permeabilised, and stained for SARS-CoV2 N protein using Alexa488-labelled-CR3009 antibody produced custom (see section for Recombinant mAb production) and cellular DNA using DRAQ7 (ABCAM). Whole-well imaging at 5× was carried out using an Opera Phenix (PerkinElmer) and fluorescent areas and intensity calculated using the Phenix-associated software Harmony (PerkinElmer).

SARS-CoV-2 [2] = test: microbe, parasite or virus in culture; type: cell-based
SARS-CoV-2 [3] = conditions: remdesivir at 1 µM and below; cited from earlier work
[4] = biological target: nsp10–16 fusion 2′-O-methyltransferase (Severe acute respiratory syndrome coronavirus 2, UniProt P0DTD1); type: biochemical, SARS-CoV-2
SIRT1 = system: SIRT1; parameters: method as in PMID 22331558; conditions: read-out: IC50 against SIRT1; cited from earlier work
[5] = Severe acute respiratory syndrome coronavirus 2, Vero C1008, Vero E6 cells, MOI 0.5 PFU/cell, 22 h, in additional presence of 0.5 µM remdesivir, read-out: EC50 + Rem. of viral replication (viral nucleoprotein area)
[6] = Vero E6 cells, 0.5 µM remdesivir versus compound alone

Compound: Nc1nc(OCc2cc(Br)cs2)c2[nH]cnc2n1 [Lomeguatrib]
- IC50 [1]: ~0.005 µM
- Cytotoxicity at effective / EC50 concentrations (DNA staining) (Vero E6 cells): slight cytotoxicity
- EC50 (SARS-CoV-2 [2]; Severe acute respiratory syndrome coronavirus 2, Vero C1008, 22 h, read-out: EC50 of viral replication (viral nucleoprotein area)): 59.8 µM
- EC50 (SARS-CoV-2 [2]; [5]): 44.1 µM
- EC50 reduction when combined with remdesivir (SARS-CoV-2 [2]; [6]): ~27%

Compound: N#Cc1ccc(N2N=C3c4ccc(C(=O)O)cc4CC[C@@H]3[C@@H]2C2CCCC2)cc1Cl [PF-03882845]
- EC50 reduction when combined with remdesivir (SARS-CoV-2 [2]): ~56%
- EC50 (SARS-CoV-2 [2]; read-out: EC50 + Rem. of viral replication (viral nucleoprotein area)): 4.79 µM
- EC50 (SARS-CoV-2 [2]; read-out: EC50 of viral replication (viral nucleoprotein area)): 11 µM

Compound: O=C(CCCN1CCC(O)(c2cccc(C(F)(F)F)c2)CC1)c1ccc(F)cc1 [Trifluperidol]
- Cytotoxicity at effective / EC50 concentrations (DNA staining) (Vero E6 cells): little to no cytotoxicity
- EC50 (SARS-CoV-2 [2]; [5]): 5.05 µM
- EC50 (SARS-CoV-2 [2]; Severe acute respiratory syndrome coronavirus 2, Vero C1008, Vero E6 cells, MOI 0.5 PFU/cell, 22 h post infection, read-out: EC50 of viral replication (viral nucleoprotein area)): 14.9 µM
- EC50 reduction when combined with remdesivir (SARS-CoV-2 [2]; [6]): ~66%

Compound: CCC(CC)COC(=O)[C@H](C)N[P@](=O)(OC[C@H]1O[C@@](C#N)(c2ccc3c(N)ncnn23)[C@H](O)[C@@H]1O)Oc1ccccc1 [remdesivir]
- Capacity to reduce viral titre in Vero E6 cells (SARS-CoV-2 [3]): limited capacity to reduce viral titre

Compound: Nc1ncnc2c1ncn2[C@@H]1O[C@H](C[C@@H](N)CC[C@H](N)C(=O)O)[C@@H](O)[C@H]1O [sinefungin]
- Inhibition of nsp10–16 methyltransferase (normalised HTRF) [4]: able to inhibit methyltransfer by nsp10–16

Compound: Inauhzin
- Cytotoxicity at effective / EC50 concentrations (DNA staining) (Vero E6 cells): little to no cytotoxicity
- IC50 (SIRT1): ~1 µM
- EC50 reduction when combined with remdesivir (SARS-CoV-2 [2]; [6]): no increased inhibitory capacity
- EC50 (SARS-CoV-2 [2]; Vero E6 cells, MOI 0.5 PFU/cell, 22 h, in additional presence of 0.5 µM remdesivir, read-out: EC50 + Rem. of viral replication (viral nucleoprotein area)): 11.2 µM
- EC50 (SARS-CoV-2 [2]; Vero E6 cells, MOI 0.5 PFU/cell, 22 h post infection, read-out: EC50 of viral replication (viral nucleoprotein area)): 13 µM
